# Results from PubChem BioAssay (NCI).
#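 Where inhibition never reached the appropriate level, the endpoint shown equals the highest concentration tested. Otherwise, values were interpolated linearly from a five-concentration, 48-hour dose response in 96-well plates. TGI marks complete inhibition of growth.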
# How the values were obtained:
# Assay in all cases: NCI tumour cell line growth inhibition, 48 h
# COLO 205 colon = system: COLO 205 colon
# RPMI-8226 leukemia = system: RPMI-8226 leukemia
# HOP-92 NSCLC = system: HOP-92 NSCLC
# HL-60(TB) leukemia = system: HL-60(TB) leukemia
# SF-268 CNS = system: SF-268 CNS
# U251 CNS = system: U251 CNS
# SK-MEL-2 melanoma = system: SK-MEL-2 melanoma
# MDA-MB-231 breast = system: MDA-MB-231 breast
# TK-10 renal = system: TK-10 renal
# KM12 colon = system: KM12 colon
# SR leukemia = system: SR leukemia
# BT-549 breast = system: BT-549 breast
# HOP-62 NSCLC = system: HOP-62 NSCLC
# IGROV1 ovarian = system: IGROV1 ovarian
SMILES,TGI (COLO 205 colon),TGI (RPMI-8226 leukemia),TGI (HOP-92 NSCLC),TGI (HL-60(TB) leukemia),TGI (SF-268 CNS),TGI (U251 CNS),TGI (SK-MEL-2 melanoma),TGI (MDA-MB-231 breast),TGI (TK-10 renal),TGI (KM12 colon),TGI (SR leukemia),TGI (BT-549 breast),TGI (HOP-62 NSCLC),TGI (IGROV1 ovarian)
O=C1CSC(c2ccc([N+](=O)[O-])cc2)N1c1ccc(-c2ccc(-n3c(-c4ccccc4)nc4ccccc4c3=O)cc2)cc1 (stereo unspecified),> 100 µM,> 100 µM,> 100 µM,> 100 µM,> 100 µM,> 100 µM,> 100 µM,> 100 µM,> 100 µM,> 100 µM,87 µM,> 100 µM,> 100 µM,
O=c1[nH]nc(Cc2ccccc2)n1/N=C/c1cccnc1,> 100 µM,> 100 µM,> 100 µM,> 100 µM,> 100 µM,> 100 µM,,> 100 µM,> 100 µM,> 100 µM,> 100 µM,> 100 µM,> 100 µM,> 100 µM
CCN(CC)CCn1c(=O)c2c(C)c3oc4ccccc4oc3c(C)c2c1=O,> 100 µM,> 100 µM,> 100 µM,> 100 µM,> 100 µM,> 100 µM,> 100 µM,> 100 µM,> 100 µM,> 100 µM,,> 100 µM,> 100 µM,> 100 µM
CCCCc1ccc(Nc2nc(Cl)c3ccn(C4CC(Oc5ccc(C)cc5)C(COc5ccc(C)cc5)O4)c3n2)cc1 (stereo unspecified),> 46.4 µM,> 46.4 µM,> 46.4 µM,> 46.4 µM,> 100 µM,> 46.4 µM,> 46.4 µM,> 46.4 µM,43.4 µM,> 46.4 µM,,17.3 µM,> 100 µM,29.5 µM
COC(=O)C1=C(C(=O)OC)C(N(C)C)C(C(=O)OC)=C(C(=O)OC)S1,> 100 µM,> 100 µM,,,> 100 µM,> 100 µM,> 100 µM,> 100 µM,> 100 µM,> 100 µM,> 100 µM,> 100 µM,> 100 µM,
CC1(C)C2CCC1C(=O)[C@@]1(C=CC(=O)CC1)C2 (stereo partly specified),> 100 µM,> 100 µM,> 100 µM,> 100 µM,> 100 µM,> 100 µM,,> 100 µM,> 100 µM,> 100 µM,> 100 µM,> 100 µM,> 100 µM,> 100 µM
COc1cc(Cc2cnc(N)nc2N)cc(OC)c1OCCCNc1ccc([N+](=O)[O-])cc1,27.4 µM,,36.4 µM,,74 µM,29.2 µM,29.5 µM,27.5 µM,32.7 µM,32.2 µM,24.3 µM,31.1 µM,27.4 µM,28.3 µM
COC(=O)C1=C(O)CCCC(C2CCCCC(=O)C2C(=O)OC)=C1 (stereo unspecified),> 100 µM,> 100 µM,> 100 µM,,,> 100 µM,> 100 µM,> 100 µM,> 100 µM,> 100 µM,> 100 µM,> 100 µM,,> 100 µM
Cc1c(Cl)cccc1N=NC(=O)NNc1cccc(Cl)c1C,,> 100 µM,,38.1 µM,31.8 µM,29.7 µM,26.4 µM,37.1 µM,29.6 µM,,95 µM,27.7 µM,25.4 µM,19.6 µM
Cn1c2ccccc2c2cc(N3CCCC3)c3c(c21)C(=O)N(c1ccccc1)C3=O,> 100 µM,> 100 µM,,> 100 µM,> 100 µM,> 100 µM,,> 100 µM,> 100 µM,> 100 µM,> 100 µM,> 100 µM,> 100 µM,> 100 µM
COC1=C(Cl)C(=O)c2c(O)ccc(O)c2C1=O,0.53 µM,1.45 µM,3.61 µM,,6.25 µM,11.9 µM,3.25 µM,3.19 µM,2.4 µM,23.5 µM,1.3 µM,3.31 µM,2.31 µM,3.72 µM
C/C=C(\C)C(=O)O[C@@H]1CC(C)(C)CC2C3=CCC4[C@]56CC[C@](O)(OC5)C(C)(C)C6CC[C@@]4(C)C3(C)CC[C@]21C(=O)O (stereo partly specified),> 100 µM,> 100 µM,,> 100 µM,> 100 µM,> 100 µM,> 100 µM,> 100 µM,> 100 µM,> 100 µM,,> 100 µM,> 100 µM,> 100 µM
COC(=O)[C@]1(c2cc3ccccc3[nH]2)CC2CN(C(=O)OCc3ccccc3)C1CC2=O (stereo partly specified),30.1 µM,38.9 µM,87.8 µM,44.4 µM,> 100 µM,34.1 µM,38.2 µM,32.4 µM,> 100 µM,> 100 µM,,95.5 µM,> 100 µM,> 100 µM
CN(C)CCOc1ccc(-c2c(Oc3ccccc3)c(=O)oc3ccccc23)cc1,24.7 µM,40.8 µM,32.7 µM,,25.4 µM,17.3 µM,28.9 µM,18.8 µM,26.4 µM,77.8 µM,19.4 µM,26.6 µM,,25.2 µM
c1ccc(Nc2nn3c(CCCCCCCCc4nnc5sc(Nc6ccccc6)nn45)nnc3s2)cc1,42.8 µM,> 100 µM,> 100 µM,,> 100 µM,> 100 µM,> 100 µM,> 100 µM,> 100 µM,> 100 µM,38.3 µM,> 100 µM,> 100 µM,
CN1CCc2c(sc3ncn(Nc4ccc(Cl)cc4)c(=N)c23)C1,> 100 µM,> 100 µM,> 100 µM,> 100 µM,> 100 µM,> 100 µM,> 100 µM,> 100 µM,> 100 µM,> 100 µM,,> 100 µM,> 100 µM,> 100 µM
Cc1ccc(-c2cc[n+]3c(n2)oc2ccccc23)cc1,68.5 µM,54.4 µM,47.3 µM,44.2 µM,> 100 µM,> 100 µM,46.6 µM,> 100 µM,,> 100 µM,47 µM,76.6 µM,,> 100 µM
O=c1[nH]c2nccn2c2c1SCCN2,> 100 µM,> 100 µM,,> 100 µM,> 100 µM,> 100 µM,> 100 µM,,> 100 µM,> 100 µM,> 100 µM,> 100 µM,> 100 µM,> 100 µM

SMILES,TGI (COLO 205 colon),TGI (RPMI-8226 leukemia),TGI (HOP-92 NSCLC),TGI (HL-60(TB) leukemia),TGI (SF-268 CNS),TGI (U251 CNS),TGI (SK-MEL-2 melanoma),TGI (MDA-MB-231 breast),TGI (TK-10 renal),TGI (KM12 colon),TGI (SR leukemia),TGI (BT-549 breast),TGI (HOP-62 NSCLC),TGI (IGROV1 ovarian)
Cc1cc2n[n+]3[n-]cc(-c4ccccc4)n3c2cc1[N+](=O)[O-],> 100 µM,> 100 µM,> 100 µM,> 100 µM,,> 100 µM,> 100 µM,> 100 µM,> 100 µM,> 100 µM,> 100 µM,> 100 µM,> 100 µM,> 100 µM
O=C(N/N=C\c1cccc2ccccc12)Nc1cccc2ccccc12,> 100 µM,,,60.8 µM,> 100 µM,34.9 µM,> 100 µM,45.8 µM,56.5 µM,> 100 µM,13.6 µM,> 100 µM,23.1 µM,> 100 µM
CCN(CC)CC1CN=C(N)O1 (stereo unspecified),> 100 µM,> 100 µM,> 100 µM,,,> 100 µM,> 100 µM,> 100 µM,,> 100 µM,> 100 µM,> 100 µM,> 100 µM,> 100 µM
CC1SC2(CCCCC2)N(NC(=O)CSc2nc3ccc(Cl)cc3c(=O)n2-c2ccccc2)C1=O (stereo unspecified),29.2 µM,,52.5 µM,51 µM,54.8 µM,31.6 µM,31.8 µM,35 µM,> 100 µM,> 100 µM,,36.4 µM,34.3 µM,39.4 µM
COC(=O)c1ccccc1/C=C1\Cc2ccc3c(c2C1=O)CCCC3,> 100 µM,> 100 µM,,,> 100 µM,> 100 µM,> 100 µM,> 100 µM,> 100 µM,> 100 µM,> 100 µM,> 100 µM,> 100 µM,> 100 µM
CCCCCCCCCCCCCCCCCCNC(=S)/N=C/c1c(O)c2ccccc2[nH]c1=O,32.9 µM,,32.7 µM,17.9 µM,29.5 µM,40.5 µM,52.2 µM,30.3 µM,56.1 µM,30.9 µM,,38 µM,33 µM,21.2 µM
O=C1CC(=O)NC(=NN2C(=O)CSC2C(=O)c2ccco2)N1 (stereo unspecified),> 100 µM,> 100 µM,> 100 µM,,> 100 µM,> 100 µM,> 100 µM,> 100 µM,> 100 µM,> 100 µM,> 100 µM,> 100 µM,> 100 µM,> 100 µM
Cc1nc2c(cc1OCc1ccccc1)C(=O)C1=C(C2=O)C2OC(=O)CC2OC1(C)C (stereo unspecified),1.15 µM,> 100 µM,1.42 µM,0.371 µM,,2.14 µM,,1.51 µM,2.75 µM,2 µM,,1.88 µM,2.87 µM,1.31 µM
COC(=O)C(Cc1c[nH]c2ccccc12)NP(=O)(O)OCC1OC(n2cc(Br)c(=O)[nH]c2=O)CC1O (stereo unspecified),> 100 µM,,> 100 µM,> 100 µM,> 100 µM,> 100 µM,> 100 µM,> 100 µM,> 100 µM,> 100 µM,> 100 µM,> 100 µM,> 100 µM,> 100 µM
COc1cc(C2C3=C(CCCC3=O)N(c3ccc(C)cc3)C3=C2C(=O)CCC3)c([N+](=O)[O-])cc1OC,,> 100 µM,> 100 µM,> 100 µM,> 100 µM,> 100 µM,,,> 100 µM,> 100 µM,> 100 µM,> 100 µM,,> 100 µM
CCN(CC)c1ccc(/C=C2\CCc3ccc([N+](=O)[O-])cc3C2=O)cc1,> 100 µM,> 100 µM,> 100 µM,5.33 µM,> 100 µM,> 100 µM,,> 100 µM,> 100 µM,> 100 µM,> 100 µM,> 100 µM,,> 100 µM
O=C(OC1CN2CCC1CC2)N(c1ccccc1)c1ccccc1 (stereo unspecified),> 100 µM,> 100 µM,> 100 µM,> 100 µM,> 100 µM,> 100 µM,> 100 µM,> 100 µM,> 100 µM,,> 100 µM,> 100 µM,> 100 µM,> 100 µM
Cc1ccc(S(=O)(=O)N/N=C2\CC3CC4CCC2C4C3)cc1 (stereo unspecified),> 100 µM,> 100 µM,> 100 µM,> 100 µM,> 100 µM,> 100 µM,,> 100 µM,> 100 µM,> 100 µM,> 100 µM,> 100 µM,> 100 µM,> 100 µM
N#Cc1cc(Sc2ccc(N)c(C#N)c2)ccc1N,23.7 µM,59.2 µM,> 100 µM,6.49 µM,59 µM,> 100 µM,> 100 µM,> 100 µM,> 100 µM,24.9 µM,,> 100 µM,> 100 µM,> 100 µM
CCOC1NC(=O)Oc2cc3ccccc3cc21 (stereo unspecified),> 100 µM,> 100 µM,82.8 µM,> 100 µM,> 100 µM,> 100 µM,,> 100 µM,> 100 µM,> 100 µM,> 100 µM,> 100 µM,> 100 µM,> 100 µM
COC(=O)c1c(C)cccc1C1CN=NC12Cc1cc(C)cc(C)c1C2=O (stereo unspecified),31.9 µM,,64.2 µM,44.2 µM,> 100 µM,> 100 µM,> 100 µM,98.2 µM,98.3 µM,> 100 µM,,> 100 µM,> 100 µM,> 100 µM
O=c1[nH]nc(Nc2ccccc2)c2nnn(C3CCCCC3)c12,> 100 µM,> 100 µM,> 100 µM,> 100 µM,,> 100 µM,> 100 µM,> 100 µM,> 100 µM,> 100 µM,> 100 µM,> 100 µM,> 100 µM,
Cc1nc2ccc(F)cc2c(Cl)c1CCCl,47.2 µM,> 100 µM,> 100 µM,35 µM,> 100 µM,> 100 µM,,73.8 µM,> 100 µM,> 100 µM,44.9 µM,> 100 µM,> 100 µM,> 100 µM
